Measurements: ChEMBL document CHEMBL5649169 (ChemMedChem, 2018)

Tests used:
[1] = target: Large ribosomal subunit protein uL6 (Homo sapiens) (UniProt P32969)
[2] = target: TRAF2 and NCK-interacting protein kinase (Homo sapiens) (UniProt Q9UKE5)
[3] = target: Poly [ADP-ribose] polymerase 1 (Homo sapiens) (UniProt P09874)
[4] = target: Fanconi anemia group I protein (Homo sapiens) (UniProt Q9NVI1)
[5] = target: Heat shock protein HSP 90-alpha (Homo sapiens) (UniProt P07900)
[6] = target: NADH dehydrogenase [ubiquinone] 1 beta subcomplex subunit 10 (Homo sapiens) (UniProt O96000)
[7] = target: 26S proteasome non-ATPase regulatory subunit 7 (Homo sapiens) (UniProt P51665)
[8] = target: Serine/threonine-protein kinase SIK2 (Homo sapiens) (UniProt Q9H0K1)
Serine/threonine-protein kinase SIK2 (Homo sapiens), sequence (Q9H0K1 whole entry, looked up): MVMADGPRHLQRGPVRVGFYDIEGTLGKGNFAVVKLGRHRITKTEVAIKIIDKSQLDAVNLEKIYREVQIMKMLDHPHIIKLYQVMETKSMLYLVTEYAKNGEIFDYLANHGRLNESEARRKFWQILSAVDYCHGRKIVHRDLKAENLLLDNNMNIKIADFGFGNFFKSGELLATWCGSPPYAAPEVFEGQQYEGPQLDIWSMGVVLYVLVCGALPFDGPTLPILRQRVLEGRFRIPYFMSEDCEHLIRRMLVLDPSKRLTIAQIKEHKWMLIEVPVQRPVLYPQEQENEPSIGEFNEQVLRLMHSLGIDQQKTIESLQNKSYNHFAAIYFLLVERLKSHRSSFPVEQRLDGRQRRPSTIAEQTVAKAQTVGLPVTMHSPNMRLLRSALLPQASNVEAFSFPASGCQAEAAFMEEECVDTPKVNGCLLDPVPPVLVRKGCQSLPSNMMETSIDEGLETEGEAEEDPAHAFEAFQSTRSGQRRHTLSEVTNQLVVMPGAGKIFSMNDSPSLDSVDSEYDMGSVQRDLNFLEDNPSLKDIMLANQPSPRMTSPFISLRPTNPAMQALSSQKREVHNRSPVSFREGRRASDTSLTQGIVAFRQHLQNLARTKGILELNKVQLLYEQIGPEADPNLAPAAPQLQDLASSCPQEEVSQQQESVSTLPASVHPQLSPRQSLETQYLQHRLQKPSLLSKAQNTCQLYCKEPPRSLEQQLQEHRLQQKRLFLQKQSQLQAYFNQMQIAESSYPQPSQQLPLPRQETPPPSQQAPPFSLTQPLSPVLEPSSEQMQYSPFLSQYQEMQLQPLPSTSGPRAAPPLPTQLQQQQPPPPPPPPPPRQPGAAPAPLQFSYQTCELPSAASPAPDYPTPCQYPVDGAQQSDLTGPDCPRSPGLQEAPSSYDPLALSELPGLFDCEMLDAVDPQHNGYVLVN

[9] = target: Dolichyl-diphosphooligosaccharide--protein glycosyltransferase subunit 2 (Homo sapiens) (UniProt P04844)
[10] = target: COP9 signalosome complex subunit 2 (Homo sapiens) (UniProt P61201)
COP9 signalosome complex subunit 2 (Homo sapiens), sequence (P61201 whole entry, one chain of several): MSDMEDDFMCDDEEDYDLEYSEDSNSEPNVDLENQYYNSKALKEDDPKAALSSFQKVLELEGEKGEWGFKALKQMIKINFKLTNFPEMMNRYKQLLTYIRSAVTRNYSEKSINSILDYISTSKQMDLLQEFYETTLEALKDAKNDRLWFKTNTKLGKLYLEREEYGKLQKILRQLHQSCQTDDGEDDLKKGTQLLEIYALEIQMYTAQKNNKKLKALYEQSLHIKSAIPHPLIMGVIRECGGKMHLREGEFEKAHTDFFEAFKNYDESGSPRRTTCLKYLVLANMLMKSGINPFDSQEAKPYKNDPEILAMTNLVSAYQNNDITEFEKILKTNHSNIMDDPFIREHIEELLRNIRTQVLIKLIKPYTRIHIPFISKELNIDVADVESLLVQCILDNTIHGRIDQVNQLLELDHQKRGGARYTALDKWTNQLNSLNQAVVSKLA

[11] = target: Coatomer subunit delta (Homo sapiens) (UniProt P48444)
Homo sapiens [12] = species on record: Homo sapiens
[13] = target: Translation initiation factor eIF2B subunit delta (Homo sapiens) (UniProt Q9UI10)
[14] = target: Heterogeneous nuclear ribonucleoprotein H3 (Homo sapiens) (UniProt P31942)
[15] = target: CYFIP-related Rac1 interactor B (Homo sapiens) (UniProt Q9NUQ9)
[16] = target: Eukaryotic translation initiation factor 3 subunit B (Homo sapiens) (UniProt P55884)
[17] = target: Syndecan-1 (Homo sapiens) (UniProt P18827)
[18] = target: Small ribosomal subunit protein uS19 (Homo sapiens) (UniProt P62841)
[19] = target: LIM domain kinase 1 (Homo sapiens) (UniProt P53667)
[20] = target: Structural maintenance of chromosomes protein 4 (Homo sapiens) (UniProt Q9NTJ3)
[21] = target: Serine/threonine-protein kinase/endoribonuclease IRE2 (Homo sapiens) (UniProt Q76MJ5)
Serine/threonine-protein kinase/endoribonuclease IRE2 (Homo sapiens), sequence (Q76MJ5 35-926 limits assumed): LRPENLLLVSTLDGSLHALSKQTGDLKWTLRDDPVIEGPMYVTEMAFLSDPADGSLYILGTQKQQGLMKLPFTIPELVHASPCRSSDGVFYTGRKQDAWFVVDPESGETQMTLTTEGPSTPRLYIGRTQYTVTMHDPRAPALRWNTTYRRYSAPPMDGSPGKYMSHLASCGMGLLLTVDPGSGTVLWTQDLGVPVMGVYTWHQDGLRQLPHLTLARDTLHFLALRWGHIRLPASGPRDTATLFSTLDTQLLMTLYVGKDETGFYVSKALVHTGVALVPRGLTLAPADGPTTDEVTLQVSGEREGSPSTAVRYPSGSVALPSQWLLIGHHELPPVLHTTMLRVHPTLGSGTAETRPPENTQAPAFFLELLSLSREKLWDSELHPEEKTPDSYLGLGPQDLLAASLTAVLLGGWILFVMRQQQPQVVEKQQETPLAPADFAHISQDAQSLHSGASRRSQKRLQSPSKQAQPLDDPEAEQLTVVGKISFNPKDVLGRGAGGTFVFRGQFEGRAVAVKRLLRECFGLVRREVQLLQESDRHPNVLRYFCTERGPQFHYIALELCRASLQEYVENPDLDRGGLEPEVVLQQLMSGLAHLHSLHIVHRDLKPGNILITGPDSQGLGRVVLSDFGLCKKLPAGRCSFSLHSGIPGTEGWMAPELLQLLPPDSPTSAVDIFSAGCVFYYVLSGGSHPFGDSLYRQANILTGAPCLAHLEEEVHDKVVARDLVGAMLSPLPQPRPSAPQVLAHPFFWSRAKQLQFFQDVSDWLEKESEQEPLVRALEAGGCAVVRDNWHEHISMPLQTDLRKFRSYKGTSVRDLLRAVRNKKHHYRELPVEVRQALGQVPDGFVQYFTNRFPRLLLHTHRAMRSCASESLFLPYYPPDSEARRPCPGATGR

Homo sapiens [22] = species on record: Homo sapiens; remark: listed apart in the source
Ephrin type-A receptor 4 = Ephrin type-A receptor 4 (Homo sapiens, UniProt P54764)
Ephrin type-A receptor 4, sequence (P54764 whole entry): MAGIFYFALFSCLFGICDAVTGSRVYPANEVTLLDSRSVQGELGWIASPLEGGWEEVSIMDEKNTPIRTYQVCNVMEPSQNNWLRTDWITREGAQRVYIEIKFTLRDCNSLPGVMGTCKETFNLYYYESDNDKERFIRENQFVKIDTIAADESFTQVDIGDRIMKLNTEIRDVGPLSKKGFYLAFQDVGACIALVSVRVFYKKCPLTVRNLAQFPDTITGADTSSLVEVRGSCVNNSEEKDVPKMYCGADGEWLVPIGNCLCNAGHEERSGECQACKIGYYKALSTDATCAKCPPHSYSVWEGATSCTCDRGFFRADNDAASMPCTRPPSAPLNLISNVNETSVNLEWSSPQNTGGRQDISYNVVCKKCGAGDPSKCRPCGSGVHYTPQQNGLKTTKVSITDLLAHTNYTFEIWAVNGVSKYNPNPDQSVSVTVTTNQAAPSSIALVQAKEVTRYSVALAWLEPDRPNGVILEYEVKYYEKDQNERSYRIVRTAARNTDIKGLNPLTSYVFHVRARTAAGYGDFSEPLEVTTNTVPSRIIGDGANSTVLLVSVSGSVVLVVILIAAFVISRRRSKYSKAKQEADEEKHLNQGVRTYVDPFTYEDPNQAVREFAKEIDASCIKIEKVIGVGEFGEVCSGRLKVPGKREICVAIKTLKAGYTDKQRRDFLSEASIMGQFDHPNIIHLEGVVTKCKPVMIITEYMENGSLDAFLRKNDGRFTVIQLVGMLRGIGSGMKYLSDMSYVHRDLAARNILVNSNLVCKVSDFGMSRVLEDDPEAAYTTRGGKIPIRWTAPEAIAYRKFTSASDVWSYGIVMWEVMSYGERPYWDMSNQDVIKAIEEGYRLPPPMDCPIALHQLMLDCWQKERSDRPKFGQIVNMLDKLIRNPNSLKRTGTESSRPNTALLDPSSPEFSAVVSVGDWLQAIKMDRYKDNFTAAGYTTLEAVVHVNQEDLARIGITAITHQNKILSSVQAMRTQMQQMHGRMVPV

[23] = target: Serine/threonine-protein kinase Nek7 (Homo sapiens) (UniProt Q8TDX7)
[24] = target: Spectrin beta chain, non-erythrocytic 1 (Homo sapiens) (UniProt Q01082)
Cyclin-H (Homo sapiens) = Cyclin-H (Homo sapiens) (UniProt P51946)
Homo sapiens [25] = species on record: Homo sapiens; remark: listed apart in the source
[26] = target: Small ribosomal subunit protein eS25 (Homo sapiens) (UniProt P62851)
[27] = target: Small ribosomal subunit protein eS17 (Homo sapiens) (UniProt P08708)
[28] = target: ADP/ATP translocase 1 (Homo sapiens) (UniProt P12235)
[29] = target: Transportin-1 (Homo sapiens) (UniProt Q92973)
Transportin-1 (Homo sapiens), sequence (Q92973 whole entry): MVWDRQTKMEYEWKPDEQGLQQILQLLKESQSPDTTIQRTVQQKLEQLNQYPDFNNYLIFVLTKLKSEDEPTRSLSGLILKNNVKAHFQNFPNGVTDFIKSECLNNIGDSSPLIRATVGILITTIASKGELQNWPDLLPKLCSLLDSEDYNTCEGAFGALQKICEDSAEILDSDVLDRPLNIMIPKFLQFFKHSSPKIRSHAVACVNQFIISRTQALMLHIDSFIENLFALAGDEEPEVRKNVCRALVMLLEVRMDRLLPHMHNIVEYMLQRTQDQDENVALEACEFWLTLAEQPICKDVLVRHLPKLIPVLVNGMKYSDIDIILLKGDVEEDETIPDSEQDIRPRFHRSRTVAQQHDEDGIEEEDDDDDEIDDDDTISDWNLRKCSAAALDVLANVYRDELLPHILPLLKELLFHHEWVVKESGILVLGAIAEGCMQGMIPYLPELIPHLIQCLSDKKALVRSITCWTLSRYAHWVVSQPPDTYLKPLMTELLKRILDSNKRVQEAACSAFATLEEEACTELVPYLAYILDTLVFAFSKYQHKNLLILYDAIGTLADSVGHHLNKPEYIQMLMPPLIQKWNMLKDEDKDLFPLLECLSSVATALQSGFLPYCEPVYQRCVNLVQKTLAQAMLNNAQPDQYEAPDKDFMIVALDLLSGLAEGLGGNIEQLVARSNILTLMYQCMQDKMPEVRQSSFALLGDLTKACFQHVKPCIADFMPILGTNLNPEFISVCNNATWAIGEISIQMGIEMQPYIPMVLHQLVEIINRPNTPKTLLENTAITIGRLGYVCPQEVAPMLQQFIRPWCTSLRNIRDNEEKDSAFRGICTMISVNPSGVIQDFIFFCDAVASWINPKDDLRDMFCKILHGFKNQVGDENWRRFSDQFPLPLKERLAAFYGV

[30] = target: Insulin-like growth factor 2 mRNA-binding protein 1 (Homo sapiens) (UniProt Q9NZI8)
[31] = target: Metal cation symporter ZIP14 (Homo sapiens) (UniProt Q15043)
[32] = target: Eukaryotic translation initiation factor 3 subunit G (Homo sapiens) (UniProt O75821)
[33] = target: DnaJ homolog subfamily C member 10 (Homo sapiens) (UniProt Q8IXB1)
[34] = target: AarF domain-containing protein kinase 1 (Homo sapiens) (UniProt Q86TW2)
[35] = target: Activin receptor type-1B (Homo sapiens) (UniProt P36896)
[36] = target: Histone H1.0 (Homo sapiens) (UniProt P07305)
Histone H1.0 (Homo sapiens), sequence (P07305 whole entry, looked up): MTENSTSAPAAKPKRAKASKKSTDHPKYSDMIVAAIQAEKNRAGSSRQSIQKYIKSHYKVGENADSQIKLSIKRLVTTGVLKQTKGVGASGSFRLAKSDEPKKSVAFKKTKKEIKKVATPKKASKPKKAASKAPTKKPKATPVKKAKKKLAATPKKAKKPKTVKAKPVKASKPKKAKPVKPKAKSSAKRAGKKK

[37] = target: Chromodomain-helicase-DNA-binding protein 4 (Homo sapiens) (UniProt Q14839)
[38] = target: Nucleophosmin (Homo sapiens) (UniProt P06748)
[39] = target: Far upstream element-binding protein 2 (Homo sapiens) (UniProt Q92945)
Ezrin (Homo sapiens) = Ezrin (Homo sapiens) (UniProt P15311)
[40] = target: Testis-expressed protein 264 (Homo sapiens) (UniProt Q9Y6I9)
[41] = target: Large ribosomal subunit protein eL31 (Homo sapiens) (UniProt P62899)
Homo sapiens [42] = species on record: Homo sapiens; remark: listed apart in the source
[43] = target: Valine--tRNA ligase (Homo sapiens) (UniProt P26640)
[44] = target: NADH-ubiquinone oxidoreductase 75 kDa subunit, mitochondrial (Homo sapiens) (UniProt P28331)
NADH-ubiquinone oxidoreductase 75 kDa subunit, mitochondrial (Homo sapiens), sequence (P28331 whole entry): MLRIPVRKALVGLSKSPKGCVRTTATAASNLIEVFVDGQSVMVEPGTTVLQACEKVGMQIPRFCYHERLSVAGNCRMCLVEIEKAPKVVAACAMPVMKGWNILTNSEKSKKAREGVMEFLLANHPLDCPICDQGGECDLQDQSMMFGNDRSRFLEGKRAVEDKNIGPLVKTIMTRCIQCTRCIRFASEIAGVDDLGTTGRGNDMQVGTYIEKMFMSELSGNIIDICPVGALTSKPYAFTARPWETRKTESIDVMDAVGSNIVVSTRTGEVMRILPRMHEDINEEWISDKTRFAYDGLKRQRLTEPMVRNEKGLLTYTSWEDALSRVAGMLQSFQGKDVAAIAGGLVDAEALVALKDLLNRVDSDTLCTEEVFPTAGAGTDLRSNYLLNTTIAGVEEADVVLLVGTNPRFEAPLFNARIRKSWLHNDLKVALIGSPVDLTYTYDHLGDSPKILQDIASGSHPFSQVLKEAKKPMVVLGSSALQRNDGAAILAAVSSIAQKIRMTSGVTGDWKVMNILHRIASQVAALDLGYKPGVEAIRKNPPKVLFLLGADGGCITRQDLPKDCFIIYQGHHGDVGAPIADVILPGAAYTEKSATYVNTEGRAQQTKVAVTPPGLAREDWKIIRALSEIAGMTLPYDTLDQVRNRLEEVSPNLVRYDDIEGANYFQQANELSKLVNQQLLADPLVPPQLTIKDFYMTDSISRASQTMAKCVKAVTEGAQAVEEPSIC

Derlin-1 (Homo sapiens) = Derlin-1 (Homo sapiens) (UniProt Q9BUN8)
Further: assay method not described here.

Work on Cc1ccc(C(=O)Nc2cccc(C(F)(F)F)c2)cc1Nc1nc(-c2cccnc2)nc2c1cnn2C yielded an ED50 [1] of 1.27 µM, an ED50 [2] of 23.2 µM and an ED50 [3] of 7.11 µM. For the same compound, the ED50 [4] was 13 µM, the ED50 [5] was 0.173 µM and the ED50 [6] was 1.17 µM. For the same compound, the ED50 [7] was 4.12 µM, the ED50 [8] was 2.14 µM and the ED50 [9] was 0.874 µM. It also gave an ED50 [10] of 24.6 µM, an ED50 [11] of 2.38 µM and an ED50 (Homo sapiens [12]) of 0.0636 µM. It also gave an ED50 [13] of 9.56 µM, an ED50 [14] of 0.00513 µM and an ED50 [15] of 4.85 µM. It also gave an ED50 [16] of 9.87 µM, an ED50 [17] of 1.77 µM and an ED50 [18] of 4.04 µM. It also gave an ED50 [19] of 0.772 µM, an ED50 [20] of 7.32 µM and an ED50 [21] of 2.7 µM. The ED50 (Homo sapiens [22]) was 106 µM, the ED50 (Ephrin type-A receptor 4) was 1.13 µM and the ED50 [23] was 0.46 µM. For the same compound, the ED50 [24] was 1.61 µM, the ED50 (Cyclin-H (Homo sapiens)) was 0.0553 µM and the ED50 (Homo sapiens [25]) was 0.0217 µM. For the same compound, the ED50 [26] was 2.64 µM, the ED50 [27] was 21.8 µM and the ED50 [28] was 1.74 µM. The ED50 [29] was 3.81 µM, the ED50 [30] was 0.115 µM and the ED50 [31] was 0.00337 µM. The ED50 [32] was 0.00468 µM, the ED50 [33] was 4930 µM and the ED50 [34] was 3.78 µM. The ED50 [35] was 0.177 µM, the ED50 [36] was 0.753 µM and the ED50 [37] was 0.00189 µM. The ED50 [38] was 0.00826 µM, the ED50 [39] was 1.03 µM and the ED50 (Ezrin (Homo sapiens)) was 7.29 µM. The ED50 [40] was 5.04 µM, the ED50 [41] was 14.9 µM and the ED50 (Homo sapiens [42]) was 7.04 µM. The ED50 [43] was 2.39 µM, the ED50 [44] was 0.765 µM and the ED50 (Derlin-1 (Homo sapiens)) was 13.9 µM.

Work on Cc1ccc(C(=O)Nc2cccc(C(F)(F)F)c2)cc1Nc1nc(-c2cccnc2)nc2nn(C)cc12 yielded an ED50 [1] of 5.23 µM, an ED50 [2] of 0.0751 µM and an ED50 [3] of 0.083 µM. It also gave an ED50 [4] of 2.2 µM, an ED50 [5] of 33.1 µM and an ED50 [6] of 0.0999 µM. For the same compound, the ED50 [7] was 0.0711 µM, the ED50 [8] was 8.18 µM and the ED50 [9] was 0.0603 µM. For the same compound, the ED50 [10] was 79.4 µM, the ED50 [11] was 8.38 µM and the ED50 (Homo sapiens [12]) was 233 µM. The ED50 [13] was 0.308 µM, the ED50 [14] was 17.1 µM and the ED50 [15] was 43 µM. For the same compound, the ED50 [16] was 0.00195 µM, the ED50 [17] was 1.07 µM and the ED50 [18] was 0.0149 µM. It also gave an ED50 [19] of 1.53 µM, an ED50 [20] of 7.29 µM and an ED50 [21] of 1.71 µM. The ED50 (Homo sapiens [22]) was 14.7 µM, the ED50 (Ephrin type-A receptor 4) was 5.1 µM and the ED50 [23] was 0.203 µM. The ED50 [24] was 0.0908 µM, the ED50 (Cyclin-H (Homo sapiens)) was 13.2 µM and the ED50 (Homo sapiens [25]) was 481 µM. It also gave an ED50 [26] of 0.2 µM, an ED50 [27] of 1.76 µM and an ED50 [28] of 107 µM. The ED50 [29] was 0.464 µM, the ED50 [30] was 0.0177 µM and the ED50 [31] was 3.03 µM. The ED50 [32] was 0.0104 µM, the ED50 [33] was 3.27 µM and the ED50 [34] was 0.0933 µM. For the same compound, the ED50 [35] was 0.0591 µM, the ED50 [36] was 1.29 µM and the ED50 [37] was 0.615 µM. For the same compound, the ED50 [38] was 104 µM, the ED50 [39] was 4.03 µM and the ED50 (Ezrin (Homo sapiens)) was 0.0827 µM. It also gave an ED50 [40] of 0.0539 µM, an ED50 [41] of 0.00449 µM and an ED50 (Homo sapiens [42]) of 39.2 µM. It also gave an ED50 [43] of 0.0195 µM, an ED50 [44] of 0.959 µM and an ED50 (Derlin-1 (Homo sapiens)) of 28 µM.
